Assay results as given in ChEMBL document CHEMBL4219231, “Nε-Acryloyllysine Piperazides as Irreversible Inhibitors of Transglutaminase 2: Synthesis, Structure-Activity Relationships, and Pharmacokinetic Profiling” (J Med Chem, 2018).
Calls of active or inactive are those of the source. No cut-off for these calls is given here.

How the values were obtained:
[1] = Inhibition of guinea pig TGase 2 using F-Cad/DMC as substrate preincubated for 30 mins followed by substrate addition measured at 30 secs interval over 900 secs by fluorescence anisotropy assay; design: species or system Cavia porcellus
[2] = target: T1, Protein-glutamine gamma-glutamyltransferase (Homo sapiens, UniProt P21980); assay: Inhibition of human TGase 2 using R-I-Cad/DMC as substrate preincubated for 5 mins followed by substrate addition measured at 30 secs interval over 900 secs by fluorescence anisotropy assay
T1 sequence (P21980 whole entry): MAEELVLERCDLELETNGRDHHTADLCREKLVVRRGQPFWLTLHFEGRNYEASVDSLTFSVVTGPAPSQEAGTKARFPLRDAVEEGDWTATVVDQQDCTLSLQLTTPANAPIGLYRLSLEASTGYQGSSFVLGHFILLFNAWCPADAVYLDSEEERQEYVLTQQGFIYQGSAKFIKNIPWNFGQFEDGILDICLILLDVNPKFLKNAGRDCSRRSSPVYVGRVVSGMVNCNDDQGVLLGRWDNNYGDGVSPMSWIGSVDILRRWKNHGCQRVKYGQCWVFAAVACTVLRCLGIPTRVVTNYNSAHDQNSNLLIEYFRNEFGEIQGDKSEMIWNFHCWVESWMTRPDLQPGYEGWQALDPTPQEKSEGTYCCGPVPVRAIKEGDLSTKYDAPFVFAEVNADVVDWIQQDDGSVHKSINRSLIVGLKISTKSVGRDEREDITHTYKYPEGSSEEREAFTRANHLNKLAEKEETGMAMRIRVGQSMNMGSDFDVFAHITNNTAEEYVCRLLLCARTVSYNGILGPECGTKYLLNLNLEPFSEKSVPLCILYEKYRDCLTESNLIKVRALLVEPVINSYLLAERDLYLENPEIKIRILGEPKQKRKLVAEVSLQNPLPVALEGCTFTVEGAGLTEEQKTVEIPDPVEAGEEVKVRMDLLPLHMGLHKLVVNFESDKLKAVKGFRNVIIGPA

[3] = target: T1, Protein-glutamine gamma-glutamyltransferase; assay: Reversible inhibition of human TGase 2 using Z-Glu(HMC)-Gly-OH as substrate measured at 20 secs interval over 900 secs by fluorimetric assay
[4] = n-octanol-phosphate buffer partition coefficient, log D of compound at pH 7.4 by 19F NMR analysis; assay type: physicochemical
[5] = Membrane retention, RM of the compound; assay type: physicochemical
[6] = target: T1, Protein-glutamine gamma-glutamyltransferase; assay: Irreversible inhibition of human TGase 2 using Z-Glu(HMC)-Gly-OH as substrate measured at 20 secs interval over 900 secs by fluorimetric assay
[7] = Chromatographic hydrophobicity index in immobilized artificial membrane at pH 7.4 by HPLC method; assay type: ADME, cell membranes
in vitro = settings: PAMPA
Description: Effective permeability of the compound by PAMPA assay

[8] = Metabolic stability in mouse liver microsomes assessed as parent compound remaining at 100 uM measured after 60 mins by HPLC-UV analysis; assay type: ADME, microsome; settings: for Stability: microsomes, 1 h, 100 µM; for remaining at 1 h, 100 µM: liver microsomes, read-out: Stability
[9] = target: T2, Protein-glutamine gamma-glutamyltransferase (Homo sapiens) (UniProt P21980); assay: Inhibition of human TGase 2 assessed as enzyme activity factor using R-I-Cad/DMC as substrate at 10 to 240 nM preincubated for 40 mins followed by substrate addition measured at 30 secs interval over 900 secs by fluorescence anisotropy assay; design: scale not given: the % may be the effect or the level left
T2 sequence (whole entry): T1 sequence (P21980 whole entry)

[10] = target: T2, Protein-glutamine gamma-glutamyltransferase (Homo sapiens); assay: Inhibition of human TGase 2 assessed as enzyme activity factor using Z-Glu(HMC)-Gly-OH as substrate at 5 to 100 nM preincubated for 40 mins followed by substrate addition measured over 300 secs by fluorimetric assay; design: scale not given: the % may be the effect or the level left
[11] = target: T1, Protein-glutamine gamma-glutamyltransferase; assay: Inhibition of TGase 2 in human A375 cells using R-I-Cad/DMC as substrate preincubated for 5 mins followed by substrate addition measured at 30 secs interval over 900 secs by fluorescence anisotropy assay; assay type: cell-based
Cavia porcellus = species on record: Cavia porcellus; assay: Irreversible inhibition of guinea pig TGase 2 using F-Cad/DMC as substrate at 30 uM preincubated for 30 mins followed by 1:100 dilution of compound-enzyme pre-incubated mixture at 30 secs interval over 900 secs by fluorescence anisotropy assay

Rm [5] [%]	Ki [6] [µM]	CHI [7]	Papp (in vitro) [×10⁻⁶ cm/s]	SMILES	other results
–	–	–	–	C=CC(=O)NCCCC[C@@H](NC(=O)Cc1ccccc1)C(=O)N1CCN(c2cccc(C)n2)CC1	IC50 [1]: 0.79 µM
–	–	–	–	C=CC(=O)NCCCC[C@H](NC(=O)Cc1ccccc1)C(=O)N1CCN(c2cccc(Cl)n2)CC1	IC50 [1]: 0.16 µM; IC50 [2]: 0.18 µM; Ki [3]: 4.43 µM
–	–	–	–	NCCCCCNC(=S)Nc1ccc2c(c1)C(=O)OC21c2ccc(O)cc2Oc2cc(O)ccc21	Ki [1]: 9.15 µM
4	10.9	26.8	3.54	C=CC(=O)NCCCC[C@H](NC(=O)Cc1ccccc1)C(=O)N1CCN(c2ccc(F)nc2)CC1	logD [4]: 1.66
38	–	37.7	7.68	C=CC(=O)NCCCC[C@H](NC(=O)Cc1ccccc1)C(=O)N1CCN(S(=O)(=O)c2cccc3c(N(C)C)cccc23)CC1	–
–	–	–	–	CCN(CC)c1ccc2c(-c3ccccc3C(=O)N3CCC(C(=O)NCCCCCN)CC3)c3ccc(=[N+](CC)CC)cc-3oc2c1	Ki [1]: 7.14 µM; Ki [2]: 6.81 µM
–	7.71	–	–	C=CC(=O)NCCCC[C@H](NC(=O)Cc1ccccc1)C(=O)N1CCN(C(=O)c2ccc([N+](=O)[O-])cc2)CC1	–
31	2.55	25.4	0.51	C=CC(=O)NCCCC[C@H](NC(=O)Cc1ccccc1)C(=O)N1CCN(c2ccncc2)CC1	Stability [8]: Stable
16	–	31.4	12.7	C=CC(=O)NCCCC[C@H](NC(=O)c1ccc(F)cc1)C(=O)N1CCN(c2cccc(C)n2)CC1	logD [4]: 0.28
24	–	30.9	12.5	C=CC(=O)NCCCC[C@H](NC(=O)Cc1cccc(F)c1)C(=O)N1CCN(c2cccc(C)n2)CC1	–
12	1.98	30.7	8.74	C=CC(=O)NCCCC[C@H](NC(=O)Cc1ccccc1F)C(=O)N1CCN(c2cccc([N+](=O)[O-])n2)CC1	logD [4]: 2.25
9	5.02	28.3	1.97	C=CC(=O)NCCCC[C@H](NC(=O)Cc1ccc(F)cc1)C(=O)N1CCN(c2ccc([N+](=O)[O-])nc2)CC1	logD [4]: 1.85; Stability [8]: Stable
–	14.3	–	–	C=CC(=O)NCCCC[C@H](NC(=O)C(F)(F)F)C(=O)N1CCN(c2cccc(-c3ccccc3)n2)CC1	–
–	–	–	0.06	NS(=O)(=O)c1cc2c(cc1Cl)NCNS2(=O)=O [HYDROCHLOROTHIAZIDE]	–
–	2.45	–	–	C=CC(=O)NCCCC[C@H](NC(=O)Cc1ccccc1)C(=O)N1CCN(c2ccc([N+](=O)[O-])nc2)CC1	IC50 [1]: 0.15 µM; IC50 [2]: 0.09 µM; Activity [9]: 80%; Activity [10]: 74.4%
–	7.12	–	–	C=CC(=O)NCCCC[C@H](NC(=O)Cc1ccccc1)C(=O)N1CCN(c2ccc(C(=O)OC)nc2)CC1	–
–	–	–	–	C=CC(=O)NCCCC[C@H](NC(=O)Cc1ccc(I)cc1)C(=O)N1CCN(c2cccc(C)n2)CC1	IC50 [1]: 0.16 µM
10	–	32.4	11.4	C=CC(=O)NCCCC[C@H](NC(=O)Cc1ccc(F)cc1)C(=O)N1CCN(c2cccc(C)n2)CC1	logD [4]: 0.36
12	7.6	32	10.3	C=CC(=O)NCCCC[C@H](NC(=O)Cc1ccccc1)C(=O)N1CCN(Cc2ccc(F)cc2)CC1	logD [4]: 2.65
11	6.77	31.8	8.98	C=CC(=O)NCCCC[C@H](NC(=O)Cc1ccccc1)C(=O)N1CCN(c2ccc(C(F)(F)F)nc2)CC1	logD [4]: 2.13; Stability [8]: Stable

Rm [5] [%]	Ki [6] [µM]	CHI [7]	Papp (in vitro) [×10⁻⁶ cm/s]	SMILES	other results
–	–	–	4.04	COCCc1ccc(OCC(O)CNC(C)C)cc1 (stereo not given) [METOPROLOL]	–
–	5.56	–	–	C=CC(=O)NCCCC[C@H](NC(=O)Cc1cccs1)C(=O)N1CCN(c2cccc(C)n2)CC1	–
–	–	–	–	C=CC(=O)NCCCC[C@H](NC(=O)Cc1ccccc1)C(=O)N1CCN(c2cccc(OCCF)n2)CC1	IC50 [1]: 0.27 µM; IC50 [2]: 0.39 µM; Ki [3]: 7.32 µM
-1	–	29.4	8.77	C=CC(=O)NCCCC[C@H](NC(=O)Cc1ccccc1)C(=O)N1CCN(c2cccc(C)n2)CC1	IC50 [1]: 0.27 µM; IC50 [2]: 0.31 µM; IC50 [11]: 0.79 µM; Ki [3]: 5.73 µM; remaining at 1 h, 100 µM [8]: 62%; inhibition (Cavia porcellus): Active
–	7.55	–	–	C=CC(=O)NCCCC[C@H](NC(=O)Cc1ccccc1)C(=O)N1CCN(c2cccc(C)c2)CC1	–
–	–	–	–	CCC(=O)NCCCC[C@H](NC(=O)Cc1ccccc1)C(=O)N1CCN(c2ccc([N+](=O)[O-])nc2)CC1	Ki [3]: 15 µM
64	–	39	21.9	C=CC(=O)NCCCC[C@H](NC(=O)Cc1ccccc1)C(=O)N1CCN(c2cccc(-c3ccccc3)n2)CC1	IC50 [1]: 0.15 µM; IC50 [2]: 0.2 µM; Ki [3]: 7.76 µM
–	7.96	–	–	C=CC(=O)NCCCC[C@H](NC(=O)Nc1ccccc1)C(=O)N1CCN(c2ccc([N+](=O)[O-])nc2)CC1	–
–	5.72	–	–	C=CC(=O)NCCCC[C@H](NC(=O)Cc1ccccc1)C(=O)N1CCN(c2ccc(C(N)=O)nc2)CC1	–
–	2.6	–	–	C=CC(=O)NCCCC[C@H](NC(=O)Cc1ccccc1)C(=O)N1CCN(c2cccnc2)CC1	–
21	4.49	30.1	11.4	C=CC(=O)NCCCC[C@H](NC(=O)Cc1ccccc1F)C(=O)N1CCN(c2cccc(C)n2)CC1	–
-3	13.4	25	3.05	C=CC(=O)NCCCC[C@H](NC(=O)Cc1ccccc1)C(=O)N1CCN(C(=O)c2ccc(F)cc2)CC1	logD [4]: 1.6; remaining at 1 h, 100 µM [8]: 85%
11	–	34.3	12.5	C=CC(=O)NCCCC[C@H](NC(=O)Nc1ccc(F)cc1)C(=O)N1CCN(c2cccc(C)n2)CC1	IC50 [1]: 0.46 µM; logD [4]: 0.47
–	–	–	–	C=CC(=O)NCCCC[C@H](NC(=O)Cc1ccccc1)C(=O)N1CCN(c2cccc(I)n2)CC1	IC50 [2]: 0.14 µM; Ki [3]: 2.92 µM
–	–	–	–	C=CC(=O)NCCCC[C@H](NC(=O)Cc1ccccc1)C(=O)N1CCN(c2ccccn2)CC1	IC50 [1]: 0.31 µM; IC50 [2]: 0.34 µM; Ki [3]: 8.42 µM; Stability [8]: Unstable
12	14	28.5	4.08	C=CC(=O)NCCCC[C@H](NC(=O)c1ccc(F)cc1)C(=O)N1CCN(c2ccc([N+](=O)[O-])nc2)CC1	logD [4]: 2.21; Stability [8]: Stable
–	2.52	–	–	C=CC(=O)NCCCC[C@H](NC(=O)Cc1ccccc1)C(=O)N1CCN(c2ccc([N+](=O)[O-])cc2)CC1	–
–	–	–	–	C=CC(=O)NCCCC[C@H](NC(=O)Cc1ccccc1)C(=O)N1CCN(c2cccc(Br)n2)CC1	IC50 [1]: 0.2 µM; IC50 [2]: 0.22 µM; Ki [3]: 5.65 µM
–	–	–	–	CCC(=O)NCCCC[C@H](NC(=O)Cc1ccccc1)C(=O)N1CCN(c2cccc(C)n2)CC1	Ki [3]: 64.3 µM
69	–	39.5	21.9	C=CC(=O)NCCCC[C@H](NC(=O)Cc1ccccc1)C(=O)N1CCN(c2cccc(C(C)(C)C)n2)CC1	IC50 [2]: 0.17 µM; Ki [3]: 3.5 µM
